{"source": "patent US10736922B2", "about": "“High telomerase activity bone marrow mesenchymal stem cells, methods of producing the same and pharmaceuticals and treatment methods based thereon” (UNIVERSITY OF SOUTHERN CALIFORNIA, priority 2010, dated 2020)", "key": {"activated SP cells [1]": {"tested_on": "activated SP cells", "assay": "Cell survival assay, Transwell co-culture with activated splenocytes (cell counting kit-8)", "type": "cell-based, mouse", "details": "for tBMMSC / BMMSC effect on cell viability of activated SP cells: L-NMMA 1 mM or 1400W 0.2 mM in co-culture", "method": "(§1) Cell apoptosis and cell survival assay. Transwell system (Corning) was used for co-culture experiments. 0.2×10^6 of tBMMSCs or BMMSCs were seeded on each lower chamber. In the upper chambers, activated splenocytes (1×10^6/chamber), which were pre-stimulated with plate-bounded anti CD3ε antibody (5 μg/ml) and soluble anti CD28 antibody (2 μg/ml) for 3 days, were loaded. Both chambers were filled with a complete medium containing Dulbecco's Modified Eagle Medium (DMEM, Lonza) with 10% heat-inactivated FBS, 50 μM 2-mercaptoethanol, 10 mM HEPES, 1 mM sodium pyruvate (Sigma), 1% non-essential amino acid (Cambrex), 2 mM L-glutamine, 100 U/ml penicillin and […] streptomycin. To measure the splenocyte viability, cell counting kit-8 (Dojindo Molecular Technoloies) were used. For apoptosis of splenocyte analysis, Annexin V-PE apoptosis detection kit I (BD Bioscience) were used and analyzed on FACS^Calibur (BD Bioscience)."}, "NO production in BMMSCs": {"tested_on": "NO production in BMMSCs", "assay": "Measurement of nitric oxide production in BMMSC culture supernatant", "type": "cell-based, mouse", "method": "(§2) Inhibitor treatment. tBMMSCs and BMMSCs were treated with 1 mM L-NMMA (Cayman Chemical) or 0.2 mM 1400 W (Cayman Chemical) to inhibit total NOS or iNOS, respectively. Aspirin 50 μg/ml (TAT) and telomerase inhibitor III (1 μM; EMD Chemicals) were used to activate and suppress telomerase activity in cultured BMMSCs, respectively. CHIRON 99021 (1 or 10 μM; Chiron Corporation) and Dickkopf 1 (DKK1, 10 ng/ml, R&D Systems) were used as an activator and inhibitor to regulate β catenin levels in BMMSCs.\nMeasurement of nitric oxide production. BMMSCs (0.2×10^6/well) were cultured on 24-well plates with or without cytokines (IFNγ, 25 ng/ml; IL-1β, 5 ng/ml, R&D Systems) and chemicals (L-NMMA, 1 mM; 1400W, 0.2 mM; aspirin, 50 μg/ml; Telomerase inhibitor III, 1 μM; CHIRON 99021, 1 or 10 μM; DKK1, 10 ng/ml) at indicated concentration and days. The same chemical concentration was also used in combination treatment such as DKK and aspirin or Telomerase inhibitor and CHIRON99021. The supernatant from each culture was collected and measured nitric oxide concentration using Total Nitric Oxide and Nitrate/Nitrite Parameter Assay kit (R&D Systems) according to manufacturer's instruction."}, "iNOS": {"biological_target": "T1, iNOS (Mus musculus, UniProt P29477)", "T1 construct": "endogenous in cells; host or cells: primary BMMSCs and tBMMSCs", "T1 sequence (P29477 1-1144)": "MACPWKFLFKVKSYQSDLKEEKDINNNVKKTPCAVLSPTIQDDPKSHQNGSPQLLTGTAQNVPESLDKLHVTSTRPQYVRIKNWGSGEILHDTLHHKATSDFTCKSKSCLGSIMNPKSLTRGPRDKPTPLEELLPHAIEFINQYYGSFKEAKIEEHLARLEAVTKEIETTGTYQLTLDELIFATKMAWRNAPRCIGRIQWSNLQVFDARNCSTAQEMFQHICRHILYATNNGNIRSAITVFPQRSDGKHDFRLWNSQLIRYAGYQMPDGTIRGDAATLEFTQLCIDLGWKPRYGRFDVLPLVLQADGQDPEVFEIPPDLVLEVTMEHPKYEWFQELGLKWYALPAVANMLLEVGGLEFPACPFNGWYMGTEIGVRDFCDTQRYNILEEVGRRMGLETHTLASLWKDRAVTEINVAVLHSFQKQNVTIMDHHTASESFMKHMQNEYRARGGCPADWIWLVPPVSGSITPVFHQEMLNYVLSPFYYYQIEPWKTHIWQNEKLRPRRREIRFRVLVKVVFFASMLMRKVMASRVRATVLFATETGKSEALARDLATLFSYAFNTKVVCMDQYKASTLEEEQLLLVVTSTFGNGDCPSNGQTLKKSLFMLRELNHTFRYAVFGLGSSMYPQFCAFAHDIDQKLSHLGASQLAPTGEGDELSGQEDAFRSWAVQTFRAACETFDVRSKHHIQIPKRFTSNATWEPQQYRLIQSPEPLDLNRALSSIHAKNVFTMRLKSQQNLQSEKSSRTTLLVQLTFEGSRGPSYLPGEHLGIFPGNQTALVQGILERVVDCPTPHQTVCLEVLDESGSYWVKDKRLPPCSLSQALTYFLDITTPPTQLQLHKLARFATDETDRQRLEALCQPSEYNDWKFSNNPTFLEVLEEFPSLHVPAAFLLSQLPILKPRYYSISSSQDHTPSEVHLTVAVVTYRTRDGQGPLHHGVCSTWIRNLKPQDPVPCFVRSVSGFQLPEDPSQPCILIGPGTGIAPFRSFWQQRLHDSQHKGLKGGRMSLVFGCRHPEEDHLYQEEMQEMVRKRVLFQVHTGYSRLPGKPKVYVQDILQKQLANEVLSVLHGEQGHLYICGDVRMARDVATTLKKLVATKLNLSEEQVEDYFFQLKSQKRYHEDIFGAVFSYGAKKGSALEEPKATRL", "assay": "Western blot of iNOS expression", "type": "cell-based", "details": "BMMSCs and tBMMSCs, L-NMMA 1 mM or 1400W 0.2 mM, 3 days", "method": "(§3) Western blotting analysis. […] of protein were used and SDS-PAGE and western blotting were performed according to standard procedures. β-actin on the same membrane served as the loading control.\nas §2"}, "CD4^+CD25^+Foxp3^+ Tregs": {"tested_on": "CD4^+CD25^+Foxp3^+ Tregs", "assay": "In vitro CD4+CD25+Foxp3+ Tregs induction", "type": "cell-based, mouse", "details": "L-NMMA 1 mM or 1400W 0.2 mM", "method": "In vitro CD4^+CD25^+Foxp3^+Tregs induction. CD4^+CD25^− T-lymphocytes (1×10^6/well), collected by CD4^+CD25^+ regulatory T-cell Isolation kit (Miltenyi Biotec), were pre-stimulated with plate bounded anti CD3E antibody (5 μg/ml) and soluble anti CD28 antibody (2 μg/ml) for 3 days. These activated T-lymphocytes were loaded on 0.2×10^6 of BMMSC or tBMMSC cultures with recombinant human TFGβ1 (2 μg/ml) (R&D Systems) and recombinant mouse IL2 (2 μg/ml) (R&D Systems). After 3 days, cells in suspension were collected and stained with anti CD4-PerCP, anti CD8a-FITC, anti CD25-APC antibodies (each 1 μg) for 45 min on ice under dark condition. And then cells were stained with anti Foxp3-PE antibody (1 μg) using Foxp3 staining buffer kit (eBioscience) for cell fixation and permeabilization. The cells were analyzed on FACS^Calibur (BD Bioscience)."}, "activated SP cells [2]": {"tested_on": "activated SP cells", "assay": "Cell apoptosis assay, Transwell co-culture with activated splenocytes (Annexin V/7AAD)", "type": "cell-based, mouse", "details": "for number of early and late apoptotic SP cells in tBMMSC and regular BMMSC groups: L-NMMA 1 mM or 1400W 0.2 mM in co-culture", "method": "as §1"}, "telomerase [3]": {"tested_on": "telomerase", "assay": "Telomerase activity, TeloTAGGG Telomerase PCR ELISA kit, mouse BMMSC cultures", "type": "cell-based", "method": "as §2\nMeasurement of telomerase activity. The Telomerase activity was measured using TeloTAGGG Telomerase PCR ELISA kit (Roche)."}, "active β-catenin": {"tested_on": "active β-catenin", "assay": "Western blot of active beta-catenin in BMMSCs", "type": "cell-based, mouse", "method": "as §3, §2"}, "telomerase [4]": {"tested_on": "telomerase", "assay": "Telomerase activity in human BMMSCs, Telo TAGGG Telomerase PCR ELISA kit", "type": "cell-based", "details": "aspirin in culture medium at 2.5 μg/ml or 50 μg/ml for 1 week"}, "[5]": {"tested_on": "CD73, Sca-1, Oct4, SSEA4, CD34, CD45", "assay": "Flow cytometric analysis of mesenchymal stem cell surface molecules", "type": "cell-based, mouse", "details": "aspirin treatment", "method": "Flow cytometric analysis of mesenchymal stem cell surface molecules. BMMSCs or pBMMSCs (0.2×10^6) were incubated with 1 µg of PE conjugated antibodies or isotype-matched control IgGs (Southern Biotech) at 4° C. for 45 min. Samples were analyzed by FACS^Calibur flow cytometer (BD Bioscience). For dual color analysis, the cells were treated with PE conjugated and FITC conjugated antibodies or isotype-matched control IgGs (each 1 […]g). The cells were analyzed on FACS^Calibur (BD Bioscience)."}, "[6]": {"tested_on": "telomerase reverse transcriptase (TERT)", "assay": "Western blot of TERT expression", "type": "cell-based, mouse", "details": "aspirin treatment, one week", "method": "as §3"}, "[7]": {"details": "L-NMMA 1 mM or 1400W 0.2 mM, 3 days"}, "[8]": {"details": "BMMSCs treated with aspirin (TAT) prior to co-culture"}}}
{"compound": "CC(=N)NCc1cccc(CN)c1", "note": "[1400W]", "values": [{"measurement": "tBMMSC / BMMSC effect on cell viability of activated SP cells", "setting": "activated SP cells [1]", "value": "significantly block tBMMSC, but not regular BMMSC, induced cell viability"}, {"measurement": "NO production in BMMSCs", "setting": "NO production in BMMSCs; [7]", "value": "inhibit NO production"}, {"measurement": "iNOS expression", "setting": "iNOS", "value": "inhibited"}, {"measurement": "BMMSC- and tBMMSC-induced up-regulation of Tregs", "setting": "CD4^+CD25^+Foxp3^+ Tregs", "value": "inhibit"}, {"measurement": "inhibition of early apoptotic SP cells, tBMMSC group compared to regular BMMSC group", "setting": "activated SP cells [2]; 1400W 0.2 mM", "value": "significantly greater inhibition"}, {"measurement": "number of early and late apoptotic SP cells in tBMMSC and regular BMMSC groups", "setting": "activated SP cells [2]", "value": "significantly reduced"}]}
{"compound": "Cc1cnc(-c2cnc(NCCNc3ccc(C#N)cn3)nc2-c2ccc(Cl)cc2Cl)[nH]1", "note": "[Chiron 99021]", "values": [{"measurement": "NO production in BMMSCs", "setting": "NO production in BMMSCs; Chiron 1 and 10 μM, 1 week", "value": "up-regulated NO production in BMMSCs in a dose-dependent manner"}, {"measurement": "Telomerase activity in BMMSCs", "setting": "telomerase [3]; Chiron treatment, 7 days", "value": "elevated telomerase activity"}, {"measurement": "active beta-catenin in BMMSCs", "setting": "active β-catenin; Chiron 99021, 7 days", "value": "elevation of active beta-catenin in a dose-dependent manner"}]}
{"compound": "CNC(=N)NCCC[C@H](N)C(=O)O", "note": "[L-NMMA, NG-monomethyl-L-arginine]", "values": [{"measurement": "tBMMSC / BMMSC effect on cell viability of activated SP cells", "setting": "activated SP cells [1]", "value": "significantly block tBMMSC, but not regular BMMSC, induced cell viability"}, {"measurement": "NO production in BMMSCs", "setting": "NO production in BMMSCs; [7]", "value": "inhibit NO production"}, {"measurement": "iNOS expression", "setting": "iNOS", "value": "inhibited"}, {"measurement": "BMMSC- and tBMMSC-induced up-regulation of Tregs", "setting": "CD4^+CD25^+Foxp3^+ Tregs", "value": "inhibit"}, {"measurement": "number of early and late apoptotic SP cells in tBMMSC and regular BMMSC groups", "setting": "activated SP cells [2]", "value": "significantly reduced"}]}
{"compound": "CC(=O)Oc1ccccc1C(=O)O", "note": "[aspirin]", "values": [{"measurement": "Telomerase activity in human BMMSCs", "setting": "telomerase [4]", "value": "significantly increased level of telomerase activity"}, {"measurement": "BMMSC-induced reduction of activated SP cell viability", "setting": "activated SP cells [1]; [8]", "value": "promote BMMSC-induced reduction of activated SP cell viability"}, {"measurement": "NO production in BMMSCs", "setting": "NO production in BMMSCs; regular BMMSCs cultured with aspirin for one week", "value": "significantly elevated"}, {"measurement": "Telomerase activity in BMMSCs", "setting": "telomerase [3]; regular BMMSCs cultured with aspirin (50 μg/ml) for one week", "value": "significantly elevated"}, {"measurement": "DKK1-induced down-regulation of activated beta-catenin", "setting": "active β-catenin; aspirin (TAT) treatment", "value": "partially block"}, {"measurement": "CD34 expression in BMMSCs", "setting": "[5]", "value": "elevates CD34 expression"}, {"measurement": "telomerase reverse transcriptase (TERT) expression in BMMSCs", "setting": "[6]", "value": "significantly elevated"}, {"measurement": "BMMSC-induced early and late apoptosis of activated SP cells", "setting": "activated SP cells [2]; [8]", "value": "elevation of early and late apoptosis"}]}
{"compound": "DKK1: Wnt inhibitor, Dickkopf 1 (R&D Systems)", "values": [{"measurement": "aspirin-induced NO production in BMMSCs", "setting": "NO production in BMMSCs; DKK1 10 ng/ml added prior to aspirin (TAT) treatment, three days", "value": "significantly block"}, {"measurement": "aspirin (TAT)-induced telomerase activity in BMMSCs", "setting": "telomerase [3]; DKK1 10 ng/ml, DKK-TAT", "value": "capable of blocking"}, {"measurement": "activated β-catenin level in BMMSCs", "setting": "active β-catenin; DKK1 10 ng/ml", "value": "reducing activated β-catenin level"}]}
